# Laboratory results as given in patent US8163718B2, “Nucleoside analogues containing phosphonate or phosphonamide groups” (Gilead Sciences, Inc., priority 2008, dated 2012).
# Legend:
# Assay in all cases: Cytostatic cell culture assay (GI50), SRB
# Format in all cases: cell-based
# [1] = tested on: A549; conditions: Homo sapiens, A549, 120 h; 5 days incubation
# Text: (§1) The assay is based on quantification of cell counts by a colorimetric detection of the cell associated proteins. The assay relies on the ability of sulforhodamine B (SRB) to bind to protein components of cells that have been fixed to tissue-culture plates by trichloroacetic acid (TCA). SRB is a bright-pink aminoxanthene dye with two sulfonic groups that bind to basic amino-acid residues under mild acidic conditions, and dissociate under basic conditions. As the binding of SRB is stoichiometric, the amount of dye extracted from stained cells is directly proportional to the cell mass.
# (§2) Cell lines: All cell lines were obtained from ATCC (Manassas, Va.). Cultivation media containing Glutamax, and trypsin were purchased from Invitrogen (Carlsbad, Calif.). Doxorubicin, Clofarabine, TCA and SRB were from Sigma-Aldrich (St. Louis, Mo.). Gemcitabine was obtained from Moravek Biochemicals (Brea, Calif.)
# (§3) • 1. Trypsinize the sub-confluent cells, count them, and adjust the cell concentrations according to the cell counts listed in Table 1. • 2. Distribute the cells into the 96-well plates in 150 μL of media. Incubate the plates overnight in humidified CO2 incubator at 37° C. • 3. Fix one plate of each cell line with TCA. Discard the cultivation media from the plates by flicking them gently and add 100 ul cold 10% (vol/vol) TCA to each well. Incubate the plates at 4 degree refrigerator for 1 hour. Discard TCA from the plates by flicking them gently. Rinse plates four times in a washing basin containing tap water. Store the plates at room temperature. These plates represent cell counts on day zero. • 4. Prepare a set of medium solutions containing various concentrations of tested compounds by making 5-fold serial dilutions in 96-well plate. Add 50 μL of the diluted compounds per well. Include controls with untreated cells and cells treated with doxorubicin, clofarabine and gemcitabine. • 5. Incubate the plates for 5 days at 37° C. • 6. Fix the plates with TCA. Discard the cultivation media from the plates by flicking them gently and add 100 ul cold 10% (vol/vol) TCA to each well. Incubate the plates at 4 degree refrigerator for 1 hour. Discard TCA from the plates by flicking them gently. Rinse plates four times in a washing basin containing tap water. • 7. Remove excess water by tapping the plates face down, gently on a paper towel. Allow the plates to air-dry at room temperature. • 8. Add 100 ul of 0.057% SRB solution in 1% (vol/vol) acetic acid to each well of the plates fixed with TCA on day zero and five. Leave at room temperature for 30 minutes. • 9. Flick the plates gently to discard SRB. Rinse the plates four times with 1% (vol/vol) Acetic Acid. • 10. Store the plates at 37 degree incubator to facilitate faster drying. • 11. Once the plates are completely dry, add 200 ul of 10 mM Tris base solution (pH 10.5) to each well. Leave at room temperature for 30 minutes for SRB to solubilize. • 12. Measure the OD at 500 nm in a microplate reader • 13. Calculate the percentage of cell-growth inhibition using the next formula: % of control cell growth=100×(ODsample−mean ODday0)/(ODneg control−mean ODday0)
# (§4) For GI50 determination, plot a dose-response curve between the compound concentration and percent of growth inhibition. GI50 values can be derived by fitting dose-response curves using sigmoidal dose response equation.
# [2] = tested on: BT-549; conditions: Homo sapiens, BT-549, 120 h; 5 days incubation
# Text: as §1, §2, §3, §4
# [3] = tested on: Du-145; conditions: Homo sapiens, DU-145, 120 h; 5 days incubation
# Text: as §1, §2, §3, §4
# [4] = tested on: HCT-116; conditions: Homo sapiens, HCT-116, 120 h; 5 days incubation
# Text: as §1, §2, §3, §4
# [5] = tested on: HCT-15; conditions: Homo sapiens, HCT-15, 120 h; 5 days incubation
# Text: as §1, §2, §3, §4
# [6] = tested on: Hs-578; conditions: Hs578, 120 h; 5 days incubation
# Text: as §1, §2, §3, §4
# [7] = tested on: NCI-H23; conditions: Homo sapiens, NCI-H23, 120 h; 5 days incubation
# Text: as §1, §2, §3, §4
# [8] = tested on: PC3; conditions: Homo sapiens, PC-3, 120 h; 5 days incubation
# Text: as §1, §2, §3, §4
SMILES,GI50 [1] [nM],GI50 [2] [nM],GI50 [3] [nM],GI50 [4] [nM],GI50 [5] [nM],GI50 [7] [nM],GI50 [8] [nM],GI50 [6] [nM]
"Nc1nc(NC2CC2)c2ncn(CCOCP(=O)(O)O)c2n1 [Example 12, [2-(2-Amino-6-cyclopropylamino-purin-9-yl)-ethoxymethyl]-phosphonic acid]",35000,70000,1230,38000,38000,2190,6100,18000
CCOC(=O)[C@@H]1CCCN1P(=O)(COCCn1cnc2c(OC3CCCCC3)nc(N)nc21)N1CCC[C@H]1C(=O)OCC [Example 40],8800,1780,74,2440,> 10000,252,109,276
CCCCOC(=O)[C@H](C)NP(=O)(COCCn1cnc2c(OC(C)C)nc(N)nc21)N[C@@H](C)C(=O)OCCCC [Example 34],41,195,4,55,2650,5,21,31
"COc1nc(N)nc2c1ncn2CCOCP(=O)(O)O [Example 2, [2-(2-Amino-6-methoxy-purin-9-yl)-ethoxymethyl]-phosphonic acid]",2420,4870,475,5900,4650,589,3700,2010
"CCCCCOc1nc(N)nc2c1ncn2CCOCP(=O)(O)O [Example 7, [2-(2-Amino-6-pentyloxy-purin-9-yl)-ethoxymethyl]-phosphonic acid]",3360,2570,101,2450,2610,596,595,1570
CCCOC(=O)[C@@H]1CCCN1P(=O)(COCCn1cnc2c(OCCC)nc(N)nc21)N1CCC[C@H]1C(=O)OCCC [Example 23],317,7,1,28,2470,3,11,4
CCCCOC(=O)[C@H](C)NP(=O)(COCCn1cnc2c(OC3CCCC3)nc(N)nc21)N[C@@H](C)C(=O)OCCCC [Example 47],103,326,1,55,1810,4,8,50
CCOC(=O)[C@@H]1CCCC1P(=O)(COCCn1cnc2c(OC3CC3)nc(N)nc21)N1CCC[C@H]1C(=O)OCC (stereo partly drawn) [Example 44],1250,16,3,154,9100,227,183,26

# Further lines, with some results ahead:
GI50 [1] [nM],GI50 [2] [nM],GI50 [3] [nM],GI50 [4] [nM],GI50 [5] [nM],GI50 [7] [nM],GI50 [8] [nM],SMILES,GI50 [6] [nM]
6,20,1,6,604,2,16,CCCCOC(=O)[C@H](Cc1ccccc1)NP(=O)(COCCn1cnc2c(OC)nc(N)nc21)N[C@@H](Cc1ccccc1)C(=O)OCCCC [Example 31],5
5,17,1,4,336,2,6,CCCCOC(=O)[C@H](Cc1ccccc1)NP(=O)(COCCn1cnc2c(OCCC)nc(N)nc21)N[C@@H](Cc1ccccc1)C(=O)OCCCC [Example 17],5
81,102,3,18,1280,7,26,CCCOc1nc(N)nc2c1ncn2CCOCP(=O)(N[C@@H](Cc1ccccc1)C(=O)OCC)N[C@@H](Cc1ccccc1)C(=O)OCC [Example 15],112
17,53,1,12,799,2,2,CCCCOC(=O)[C@H](C)NP(=O)(COCCn1cnc2c(OCC)nc(N)nc21)N[C@@H](C)C(=O)OCCCC [Example 38],20
